Experimental data from US10588280B2, “Aided delivery of plant treatment agents” (Monsanto Technology LLC, priority 2014, dated 2020).

Experiments:
[1] = tested on: haploid seedlings derived from 91DUQ1 or 83IDI1 (SAM); experiment: Example 9: serial centrifugation with colchicine and incubation between spins; assay type: in vivo, maize; details: submerged 100 g 3 min, unsubmerged 340 g 3 min, ear with at least four kernels
Source text: F1 hybrid-derived haploid seedlings derived from either female inbred line 91DUQ1 or male inbred line 83IDI1 were germinated in soil in a greenhouse in standard maize growing conditions and grown to the V1 growth stage (1 week after planting). Next, the seedlings were removed from the soil, rinsed with water to remove residual soil form the plants, and then divided into 4 samples comprising several seedlings of each germplasm per sample.
Each sample was then bundled in a PCS comprising an aluminum foil wrap and wooden rods for support, similar to that shown in FIG. 9. Once bundled in a PCS, each sample was contacted by a plant treatment solution comprising either 600 ppm or 800 ppm colchicine such that the SAM of each plant was entirely submerged, and then each sample was centrifuged at 100 g for 3 min with the SAMs submerged in the reserve doubling agent during centrifugation.
Following the submerged centrifugation, plants were removed from the centrifuge container and while some doubling solution from the first centrifugation remained clinging to the plants, the roots and bottom half of each stem were rinsed in water to remove any doubling agent from that end of the plant. Then each bundled sample was incubated in an enclosed, humid environment for one of the four incubation periods listed Table 8.
Following each respective incubation period, the bundled samples were removed from the humid enclosure and subjected to an unsubmerged centrifugation at 340 g for 3 min, wherein the only doubling solution that contacted the plants was that which remained on the plants from the previous submerged centrifugation, i.e. no additional doubling solution was added to the plants after the first centrifugation.
Following the second centrifugation, the plants were removed from the centrifugation container and rinsed with water to remove any remaining colchicine solution, and then recovered and tended in a light, humidity, and temperature-controlled greenhouse for several days before being transplanted to a nursery green house where they were tended under standard maize growing conditions until they grew to maturity and flowered.
Self-pollinations were attempted with each plant that survived the treatment to produce pollen and final doubling efficiencies were determined within each treatment. In this experiment, the doubling efficiency within each treatment sample was calculated by dividing the number of plants of each treatment sample that produced at least one ear comprising at least four kernels by the total number of plants subjected to that set of treatment conditions.

[2] = tested on: haploid seedlings derived from 91DUQ1 or 83IDI1; experiment: Example 7: serial centrifugation with colchicine at three growth stages (FIG. 4); assay type: in vivo, maize; details: 1250 ppm colchicine, submerged 50 g 3 min then unsubmerged 335 g 3 min, ear with at least four kernels
Source text: Three different growth stages and the effects on DH-related success indicators between the three life stages were compared.
F1 hybrid-derived haploid seedlings derived from either female inbred line 91DUQ1 or male inbred line 83IDI1 were germinated in soil in a greenhouse in standard maize growing conditions. To ensure that the older seedlings would fit into the centrifuge sample container, and to ensure that all seedlings received the same chemical treatments, all seedlings were subjected to a 1% paclobutrazol (PBZ) soil drench treatment at 6 days after planting, 10 ml per plant.
This population of seedlings was subdivided into 3 samples, each comprising several dozen seedlings. Half of the seedlings in each sample were derived from 91DUQ1 and the other half derived from 83IDI1. A first sample was removed from the soil at the V1-V2 growth stage (1 week after planting), a second sample removed from the soil at the V3-V4 stage (2 weeks after planting) and a third sample removed from the soil at the V4-V5 growth stage (3 weeks after planting).
Following removal from the soil, seedlings in each sample were rinsed in water to remove residual soil, then wrapped in a PCS along with several wooden rods, similar that that shown in FIG. 9, and subjected to a first submerged centrifugation in 1250 ppm colchicine at 50 g for 3 min.
Following the first, submerged centrifugation, the plant treatment solution was decanted. The seedlings, with some residual agent clinging to their surfaces, were returned to the empty centrifuge container and subjected to a unsubmerged centrifugation at 335 g for 3 min. […]
Self-pollinations were attempted with each plant that survived the treatment to produce pollen and silks and during the ensuing growth the pollination success, fertilization success and final doubling efficiency were determined within each sample. In this experiment, the doubling efficiency within each growth stage sample was calculated by dividing the number of plants that produced at least one ear comprising at least four kernels by the total number of plants treated.

[3] = tested on: seedlings of inbred lines 83IDI1 or 91DUQ1; experiment: Example 10: seedling survival after unsubmerged centrifugation for 3 or 180 min with colchicine; assay type: in vivo; details: 1250 ppm colchicine submerged 50 g 3 min, after one week
Method: Seedlings of one of two genetically diverse inbred lines (83IDI1 or 91DUQ1) were germinated in a greenhouse and removed from soil or growth media at the V1-V3 growth stage and rinsed with water to remove residual soil. All seedlings were then secured in PCSs comprising wraps and rods, like that shown in FIG. 9, and subjected to a submerged spin at 50 g in a liquid treatment solution comprising 1250 ppm colchicine for 3 min.
Following the first, submerged centrifugation, the plant treatment solution was decanted and the bundled seedlings were subjected to an unsubmerged centrifugation at 340 g for either 3 or 180 min.
Following the second centrifugation, the plants were removed from the centrifugation container and rinsed with water to remove any remaining colchicine solution, and then recovered and tended in a light, humidity, and temperature-controlled greenhouse for one week, then the number of plants surviving were counted to determine the survival rate within each treatment.

SMILES: COc1cc2c(c(OC)c1OC)-c1ccc(OC)c(=O)cc1[C@@H](NC(C)=O)CC2 [colchicine]
- DE ([1]; 600 ppm colchicine, incubation 3 min): 0.41
- DE ([1]; 600 ppm colchicine, incubation 3 hrs): 0.78
- DE ([1]; 800 ppm colchicine, incubation 3 min): 0.66
- DE ([1]; 800 ppm colchicine, incubation 3 hrs): 0.79
- DE ([2]; V1-V2 growth stage): over 70%
- doubling efficiency, average ([2]; V4-V5 growth stage): ~30%
- doubling efficiency, median ([2]; V4-V5 growth stage): 36.7%
- Survival ([3]; pedigree 83IDI1, unsubmerged 340 g for 3 minutes): 93%
- Survival ([3]; pedigree 83IDI1, unsubmerged 340 g for 180 minutes): 94%
- Survival ([3]; pedigree 91DUQ1, unsubmerged 340 g for 3 minutes): 95%
- Survival ([3]; pedigree 91DUQ1, unsubmerged 340 g for 180 minutes): 96%
